Assay results from ChEMBL document CHEMBL1201862, “PubChem BioAssay data set” (2004).
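Step 1: Grow cells in 96-well plates. Step 2: Expose to compound for 48 hours at 5 concentrations. Step 3: Interpolate endpoints linearly; if unreached, use highest concentration. The concentration for 50% growth inhibition is given as GI50.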 Active and inactive are the calls of the source. Cut-off read from the data, not from the text of the source: active = GI50 up to about 1.1 µM and inactive = higher.

Experiments:
Experiment in all cases: NCI-60 cell line screen, 48 h
A549 = tested on: A549
HCT-116 = tested on: HCT-116
HCT-15 = tested on: HCT-15
HL-60 = tested on: HL-60
HT-29 = tested on: HT-29
KM12 = tested on: KM12
LOX IMVI = tested on: LOX IMVI
MDA-N = tested on: MDA-N
NCI-H226 = tested on: NCI-H226
NCI-H23 = tested on: NCI-H23
NCI-H522 = tested on: NCI-H522
NCI/ADR-RES = tested on: NCI/ADR-RES
SF-268 = tested on: SF-268
SF-539 = tested on: SF-539
SK-MEL-2 = tested on: SK-MEL-2
SK-OV-3 = tested on: SK-OV-3
SR = tested on: SR
SW-620 = tested on: SW-620
TK-10 = tested on: TK-10
U-251 = tested on: U-251

| SMILES | GI50 (A549) | GI50 (HCT-116) | GI50 (HCT-15) [µM] | GI50 (HL-60) | GI50 (HT-29) | GI50 (KM12) | GI50 (LOX IMVI) | GI50 (MDA-N) | GI50 (NCI-H226) | GI50 (NCI-H23) | GI50 (NCI-H522) | GI50 (NCI/ADR-RES) | GI50 (SF-268) | GI50 (SF-539) | GI50 (SK-MEL-2) | GI50 (SK-OV-3) | GI50 (SR) | GI50 (SW-620) | GI50 (TK-10) | GI50 (U-251) |
| --- | --- | --- | --- | --- | --- | --- | --- | --- | --- | --- | --- | --- | --- | --- | --- | --- | --- | --- | --- | --- |
| Cc1cc2[nH]c3[nH]c(=O)[nH]c(=O)c3c2cc1C | > 100 µM (inactive) | > 100 µM (inactive) | > 100 | > 10 µM (inactive) | > 100 µM (inactive) | > 100 µM (inactive) | > 100 µM (inactive) | > 100 µM (inactive) | > 100 µM (inactive) | > 100 µM (inactive) | > 100 µM (inactive) | > 100 µM (inactive) | > 100 µM (inactive) | > 100 µM (inactive) | 74.5 µM (inactive) | > 100 µM (inactive) | 27.1 µM (inactive) | > 100 µM (inactive) | > 100 µM (inactive) |  |
| C=C1C(C2(C)C(OC(C)=O)CC(=O)OC(C)(COC(C)=O)C2CC(=O)OC)C(OC=O)C(OC(=O)C(O)C(C)CC)C2(C)C(c3ccoc3)CC(=O)C12O (stereo not given) | 3.56 µM (inactive) | 1.58 µM (inactive) | 4.8 | 0.157 µM (active) | 3.42 µM (inactive) | 3.23 µM (inactive) | 3.82 µM (inactive) | 7.26 µM (inactive) | 16.7 µM (inactive) | > 73.5 µM (inactive) | 0.83 µM (active) | 45.9 µM (inactive) | 3.72 µM (inactive) | 4.42 µM (inactive) | > 31.4 µM (inactive) | 0.78 µM (active) | 5.36 µM (inactive) | 2.08 µM (inactive) | 17.4 µM (inactive) | 3.86 µM (inactive) |
| CCc1c(Cl)nc(Cl)nc1Cl | 1.95 µM (inactive) | 0.0885 µM (active) | 0.0348 | 0.206 µM (active) | 0.121 µM (active) | 1.08 µM (active) | 0.0199 µM (active) | 0.259 µM (active) | 0.0692 µM (active) | 0.321 µM (active) | 0.0132 µM (active) | 0.382 µM (active) | 0.217 µM (active) | 0.372 µM (active) |  | 3.07 µM (inactive) | 0.0188 µM (active) | 0.0449 µM (active) | 1.58 µM (inactive) | 0.331 µM (active) |
| Nc1ncnc2c1ncn2[C@@H]1C[C@@H]1CO | > 100 µM (inactive) | > 100 µM (inactive) | > 100 | > 100 µM (inactive) | > 100 µM (inactive) | > 100 µM (inactive) | > 100 µM (inactive) | > 100 µM (inactive) | > 100 µM (inactive) | > 100 µM (inactive) | > 100 µM (inactive) | > 100 µM (inactive) |  | > 100 µM (inactive) | > 100 µM (inactive) |  | > 100 µM (inactive) | > 100 µM (inactive) |  | > 100 µM (inactive) |
| NC(=O)CSc1c2cc(O)ccc2nc2ccc(O)cc12 | > 10 µM (inactive) | > 10 µM (inactive) | > 10 | > 10 µM (inactive) | > 10 µM (inactive) | > 10 µM (inactive) | > 10 µM (inactive) | > 10 µM (inactive) | > 10 µM (inactive) | > 10 µM (inactive) | > 10 µM (inactive) | > 10 µM (inactive) | > 10 µM (inactive) | > 10 µM (inactive) | > 10 µM (inactive) | > 10 µM (inactive) | > 10 µM (inactive) | > 10 µM (inactive) | > 10 µM (inactive) | > 10 µM (inactive) |
| O=c1[nH]cnc2c1ncn2[C@@H]1C[C@H]1CO | > 100 µM (inactive) | > 100 µM (inactive) | > 100 | > 100 µM (inactive) | > 100 µM (inactive) | > 100 µM (inactive) | > 100 µM (inactive) | > 100 µM (inactive) | > 100 µM (inactive) | > 100 µM (inactive) | > 100 µM (inactive) | > 100 µM (inactive) | > 100 µM (inactive) | > 100 µM (inactive) | > 100 µM (inactive) |  | > 100 µM (inactive) | > 100 µM (inactive) | > 100 µM (inactive) | > 100 µM (inactive) |
| N=C(N)Nc1nc2cc([N+](=O)[O-])ccc2[nH]1 | > 100 µM (inactive) | > 100 µM (inactive) | > 100 | > 100 µM (inactive) | > 100 µM (inactive) | 37.3 µM (inactive) | > 100 µM (inactive) | > 100 µM (inactive) | > 100 µM (inactive) | 68.7 µM (inactive) | 68.5 µM (inactive) | 58.5 µM (inactive) | > 100 µM (inactive) | 56.6 µM (inactive) | > 100 µM (inactive) | > 100 µM (inactive) | > 100 µM (inactive) | > 100 µM (inactive) | 81.8 µM (inactive) | 91.4 µM (inactive) |
| C=C(C)[C@H]1C2=CC(C)=C(O2)[C@@H](O)[C@H](C(=C)C)CCC2=C[C@H]1OC2=O [KALLOLIDE A] | > 100 µM (inactive) |  | > 100 | > 100 µM (inactive) |  | > 100 µM (inactive) | > 100 µM (inactive) | > 100 µM (inactive) | > 100 µM (inactive) |  | 87.7 µM (inactive) | > 100 µM (inactive) | > 100 µM (inactive) | > 100 µM (inactive) | > 100 µM (inactive) |  | 99.5 µM (inactive) | > 100 µM (inactive) | > 100 µM (inactive) | > 100 µM (inactive) |
